Laboratory results taken from US8697694B2, “Substituted pyridine and pyrimidine derivatives and their use in treating viral infections” (priority 2008, dated 2014).
Read-outs that look alike come from different tables or passages of the source.

Test system: HCV replicon cells
Assay: Cell-based HCV replicon assay (replicon RNA level by real time PCR, Taqman)
Details: HCV replicon cells, read-out: EC90 (μM) range
Protocol: Assays Cell-Based HCV Replicon Assay
To measure cell-based anti-HCV activity of the compounds of the present invention, replicon cells were seeded at 5000 cells/well in 96-well collagen I-coated Nunc plates in the presence of the compound of the invention. Various concentrations of a compound of the invention, typically in 10 serial 2-fold dilutions, were added to the assay mixture, the starting concentration of the compound ranging from 25 μM to 1 μM. The final concentration of DMSO was 0.5%, fetal bovine serum was 10%, in the assay media. Cells were harvested on day 3 by the addition of 1× cell lysis buffer (Ambion cat #8721). The replicon RNA level was measured using real time PCR (Taqman assay). The amplicon was located in 5B. The PCR primers were: 5B.2F, ATGGACAGGCGCCCTGA (SEQ. ID NO. 1); 5B.2R, […] (SEQ. ID NO. 2); the probe sequence was FAM-labeled CACGCCATGCGCTGCGG (SEQ. ID NO. 3). GAPDH RNA was used as endogenous control and was amplified in the same reaction as NS5B (multiplex PCR) using primers and VIC-labeled probe recommended by the manufacturer (PE Applied Biosystem). The real-time RT-PCR reactions were run on ABI PRISM 7900HT Sequence Detection System using the following program: 48′C for 30 min, 95° C. for 10 min, 40 cycles of 95° C. for 15 sec, 60° C. for 1 min. The ΔCT values (CT5B-CTGAPDH) were plotted against the concentration of test compound and fitted to the sigmoid dose-response model using GraphPad PRISM software. EC50 was defined as the concentration of inhibitor necessary to achieve ΔCT=1 over the projected baseline; EC90 the concentration necessary to achieve ΔCT=3.2 over the baseline. Alternatively, to quantitate the absolute amount of replicon RNA, a standard curve was established by including serially diluted T7 transcripts of replicon RNA in the Taqman assay. All Taqman reagents were from PE Applied Biosystems. Such an assay procedure was described in detail in e.g. Malcolm et al., Antimicrobial Agents and Chemotherapy 50: 1013-1020 (2006).
HCV Replicon assay data for compounds of the invention that were tested was obtained using the above method. Calculated EC90 values are reported for each compound in Table I as a falling within the following ranges: […]

[1] = Hepatitis C virus, 72 h, harvested day 3, replicon RNA by real time PCR, reported as range class
[2] = Hepatitis C virus, 72 h, replicon RNA level by real time PCR (Taqman), harvested on day 3, calculated EC90 reported as range class
[3] = Hepatitis C virus, 72 h, replicon RNA level by real time PCR, harvested day 3
[4] = Hepatitis C virus, 72 h, harvested on day 3, replicon RNA by real time PCR, calculated EC90 reported as range class
[5] = Hepatitis C virus, 72 h, harvested day 3, replicon RNA by real time PCR, given as number

Compound: COC[C@H]1C[C@@H](Nc2nc(N(C)C)nc(Cl)c2-c2nc3ccccc3s2)[C@H](O)[C@@H]1O [Example 121]
- EC90 [1]: < 0.5 µM

Compound: Cc1nc(N[C@@H](C)C(C)(C)C)nc(N[C@@H]2C[C@H](CO)[C@@H](O)[C@H]2O)c1-c1nc2cnccc2s1 [Example 1310]
- EC90 [2]: 0.5 to 5 µM

Compound: Cc1nc(NCC(F)(F)F)nc(N[C@@H]2C[C@H](CNS(=O)(=O)CC(C)C)[C@@H](O)[C@H]2O)c1-c1nc2ccccc2s1 [Example 1512]
- EC90 [3]: 0.5 to 5 µM

Compound: COC(=O)NC[C@H]1C[C@@H](Nc2nc(NCC(F)(F)F)nc(C)c2-c2nc3ccccc3s2)[C@H](O)[C@@H]1O [Example 1522]
- EC90 [3]: 0.5 to 5 µM

Compound: Cc1nc(NCc2cccs2)nc(N[C@@H]2C[C@H](C)[C@H]3OC4(CCCCC4)O[C@H]32)c1-c1nc2ccccc2s1 [Example 335]
- EC90 [4]: > 5 µM

Compound: COc1cc(CNc2nc(C)c(-c3nc4ccccc4s3)c(N[C@H]3C[C@@H](CO)[C@H](O)[C@@H]3O)n2)cc(OC)c1 [Example 1501]
- EC90 [3]: 0.5 to 5 µM

Compound: Cc1ccc2nc(-c3c(Cl)nc(N)nc3N[C@@H]3C[C@H](CO)[C@@H](O)[C@H]3O)oc2c1 [Example 191]
- EC90 [1]: 0.5 to 5 µM

Compound: COc1cc(CNc2nc(C)c(-c3nc4ccccc4s3)c(N[C@@H]3CC[C@@H](O)[C@H]3O)n2)cc(OC)c1 [Example 1206]
- EC90 [2]: 0.5 to 5 µM

Compound: Cc1nc(NCCN(C)C)nc(N[C@@H]2C[C@H](CO)[C@H]3OC(C)(C)O[C@H]32)c1-c1nc2ccccc2s1 [Example 245]
- EC90 [4]: > 5 µM

Compound: CCOCCCCNc1nc(C)c(-c2nc3ccccc3s2)c(N[C@@H]2C[C@H](CO)[C@@H](O)[C@H]2O)n1 [Example 1052]
- EC90 [2]: < 0.5 µM

Compound: Cc1nc(NCC(F)(F)F)nc(N[C@@H]2C[C@H](C(O)c3ncc[nH]3)[C@@H](O)[C@H]2O)c1-c1nc2ccccc2s1 (stereo partly drawn) [Example 1654]
- EC90 [3]: 0.5 to 5 µM

Compound: Cc1cc(NCC2CC2)nc(N[C@@H]2C[C@H](CO)[C@@H](O)[C@H]2O)c1-c1nc2ccccc2s1 [Example 1616]
- EC90 [3]: > 5 µM

Compound: COCCNc1nc(N)c(-c2nc3ccccc3s2)c(N[C@@H]2C[C@H](CO)[C@@H](O)[C@H]2O)n1 [Example 1302]
- EC90 [2]: 0.5 to 5 µM

Compound: Cc1nc(NCC(F)(F)F)nc(N[C@@H]2C[C@H](CN3CCOCC3)[C@@H](O)[C@H]2O)c1-c1nc2ccccc2s1 [Example 1015]
- EC90 [2]: 0.5 to 5 µM

Compound: Cc1nc(NCC(F)(F)F)nc(N[C@@H]2C[C@H](CO)[C@@H](O)[C@H]2O)c1-c1cc2cc(C(F)(F)F)ncc2o1 [Example 142]
- EC90 [4]: 0.5 to 5 µM

Compound: NC(=O)c1ccc2cc(-c3c(Cl)nc(N)nc3N[C@@H]3C[C@H](CO)[C@@H](O)[C@H]3O)oc2c1 [Example 178]
- EC90 [1]: > 5 µM

Compound: Cc1nc(NCc2ccncc2)nc(N[C@@H]2C[C@H](CO)[C@H]3OC(C)(C)O[C@H]32)c1-c1nc2ccccc2s1 [Example 464]
- EC90 [4]: < 0.5 µM

Compound: Nc1nc(Cl)c(-c2cc3ccccc3s2)c(N[C@@H]2C[C@H](CO)[C@@H](O)[C@H]2O)n1 [Example 102]
- EC90 [1]: > 5 µM

Compound: COCc1cc2cc(-c3c(C)nc(NCC(C)(C)C)nc3N[C@@H]3C[C@H](CO)[C@H]4OC(C)(C)O[C@H]43)oc2cn1 [Example 714]
- EC90 [4]: 0.5 to 5 µM

Compound: Cc1nc(NCC(F)(F)F)nc(N[C@H]2C[C@@H](CO)[C@H](O)[C@@H]2O)c1-c1nc2ccccc2s1 [Example 1060]
- EC90 [2]: > 5 µM

Compound: Cc1nc(NCc2cc(Cl)cc(Cl)c2)nc(N[C@@H]2C[C@H](CO)[C@@H](O)[C@H]2O)c1-c1nc2ccccc2s1 [Example 1114]
- EC90 [2]: 0.5 to 5 µM

Compound: COc1ccccc1CNc1nc(C)c(-c2nc3ccccc3s2)c(N[C@@H]2C[C@H](CO)[C@@H](O)[C@H]2O)n1 [Example 1207]
- EC90 [2]: 0.5 to 5 µM

Compound: Cc1nc(N[C@@H](c2ccccc2)C(F)(F)F)nc(N[C@@H]2C[C@H](CO)[C@@H](O)[C@H]2O)c1-c1nc2c(C)nccc2s1 [Example 1353]
- EC90 [3]: < 0.5 µM

Compound: Cc1nc(NCC(C)(C)C)nc(N[C@@H]2CC[C@@H](O)[C@H]2O)c1-c1nc2cnccc2s1 [Example 1213]
- EC90 [2]: > 5 µM

Compound: Cc1nc(NCC2CC2)nc(N[C@@H]2C[C@H](C(C)O)[C@@H](O)[C@H]2O)c1-c1nc2ccccc2s1 (single isomer, unassigned) [Example 1647]
- EC90 (replicon RNA level by real time PCR, harvested day 3): 0.5 to 5 µM

Compound: Cc1ccc([C@@H](C)Nc2cc(C)c(-c3nc4ccccc4s3)c(N[C@@H]3C[C@H](CO)[C@@H](O)[C@H]3O)n2)cc1 [Example 1619]
- EC90 [3]: > 5 µM

Compound: Cc1nc(NCC2CC2)nc(N[C@@H]2C[C@H](C)[C@@H](O)[C@H]2O)c1-c1nc2cnccc2s1 [Example 1634]
- EC90 [3]: < 0.5 µM

Compound: Cc1cc2cc(-c3c(Cl)nc(NCC4CCCCC4)nc3N[C@@H]3C[C@H](CO)[C@@H](O)[C@H]3O)oc2c(C)n1 [Example 460]
- EC90 [4]: < 0.5 µM

Compound: Cc1nc(C(N)=O)nc(N[C@@H]2C[C@H](CO)[C@@H](O)[C@H]2O)c1-c1nc2ccccc2s1 [Example 1903]
- EC90 [3]: > 5 µM

Compound: Cc1ccccc1[C@H](Nc1nc(C)c(-c2nc3c(C)nccc3s2)c(N[C@@H]2C[C@H](CO)[C@@H](O)[C@H]2O)n1)C(F)(F)F [Example 1539]
- EC90 [3]: < 0.5 µM

Compound: Cc1nc(NCC2CC2)nc(N[C@@H]2CC[C@@H](O)[C@@]2(C)O)c1-c1nc2c(C)nccc2s1 [Example 1815]
- EC90 [3]: < 0.5 µM

Compound: Cc1nc(NCCc2ccc(Cl)c(Cl)c2)nc(N[C@@H]2C[C@H](CO)[C@@H](O)[C@H]2O)c1-c1nc2cnccc2s1 [Example 1914]
- EC90 [3]: < 0.5 µM

Compound: CCOc1nc(C)cc2cc(-c3c(C)nc(NCC(F)(F)F)nc3N[C@@H]3C[C@H](CO)[C@@H](O)[C@H]3O)oc12 [Example 1246]
- EC90 [2]: < 0.5 µM

Compound: Cc1ccc(CNc2nc(C)c(-c3nc4cnccc4s3)c(N[C@@H]3C[C@H](CO)[C@@H](O)[C@H]3O)n2)s1 [Example 539]
- EC90 [2]: < 0.5 µM

Compound: Cc1nc(NCc2cccs2)nc(N[C@@H]2C[C@H](CO)[C@@H](O)[C@H]2O)c1-c1cc2ccccc2s1 [Example 1602]
- EC90 [3]: > 5 µM

Compound: CNC(=O)c1ccc2oc(-c3c(Cl)nc(N)nc3N[C@@H]3C[C@H](CO)[C@@H](O)[C@H]3O)cc2c1 [Example 172]
- EC90 [1]: > 5 µM

Compound: COCc1cc2cc(-c3c(C)nc(NCc4ccco4)nc3N[C@@H]3C[C@H](CO)[C@H]4OC(C)(C)O[C@H]43)oc2cn1 [Example 1107]
- EC90 [2]: 0.5 to 5 µM

Compound: OC[C@H]1C[C@@H](Nc2nc(NCCF)nc(Cl)c2-c2nc3ccccc3s2)[C@H](O)[C@@H]1O [Example 213]
- EC90 [1]: < 0.5 µM

Compound: Cc1nc(S(C)(=O)=O)nc(N[C@@H]2C[C@H](CO)[C@@H](O)[C@H]2O)c1-c1nc2ccccc2s1 [Example 324]
- EC90 [4]: > 5 µM

Compound: CCOCCNc1nc(C)c(-c2nc3cnccc3s2)c(N[C@@H]2CC[C@@H](O)[C@@]2(C)O)n1 [Example 1819]
- EC90 [3]: < 0.5 µM

Compound: COCCN(C)c1nc(Cl)c(-c2nc3ccccc3s2)c(N[C@@H]2C[C@H](CO)[C@@H](O)[C@H]2O)n1 [Example 202]
- EC90 [1]: 0.5 to 5 µM

Compound: Cc1nc(NCC(C)(C)C)nc(N[C@@H]2C[C@H](CO)[C@@H](O)[C@H]2O)c1-c1cc2cc(OCC(F)(F)F)nc(C)c2o1 [Example 46]
- EC90 [5]: 0.85 µM

Compound: COc1ccc(CNc2nc(C)c(-c3nc4ccccc4s3)c(N[C@@H]3CC[C@@H](O)[C@H]3O)n2)cc1OC [Example 1205]
- EC90 [2]: 0.5 to 5 µM

Compound: CCOc1cc2cc(-c3c(C)nc(NCC(F)(F)F)nc3N[C@@H]3C[C@H](CO)[C@@H](O)[C@H]3O)oc2c(C)n1 [Example 29]
- EC90 [5]: 0.1 µM

Compound: Cc1nc(NCc2ncccn2)nc(N[C@@H]2C[C@H](CO)[C@@H](O)[C@H]2O)c1-c1nc2ccccc2s1 [Example 717]
- EC90 [4]: < 0.5 µM

Compound: CCNC[C@H]1C[C@@H](Nc2nc(NCC(F)(F)F)nc(C)c2-c2nc3ccccc3s2)[C@H](O)[C@@H]1O [Example 1018]
- EC90 [2]: 0.5 to 5 µM

Compound: CCc1nc(N(C)C)nc(N[C@@H]2C[C@H](CO)[C@@H](O)[C@H]2O)c1-c1nc2ccccc2s1 [Example 314]
- EC90 [1]: > 5 µM

Compound: CCOc1cc2cc(-c3c(C)nc(NCCOC)nc3N[C@@H]3C[C@H](CO)[C@@H](O)[C@H]3O)oc2c(C)n1 [Example 31]
- EC90 [1]: < 0.5 µM

Compound: CC[C@@H](C)Nc1nc(C)c(-c2nc3cnccc3s2)c(N[C@@H]2C[C@H](CO)[C@@H](O)[C@H]2O)n1 [Example 1316]
- EC90 [2]: < 0.5 µM

Compound: CCCCCNc1nc(C)c(-c2cc3cc(C)ncc3o2)c(N[C@@H]2C[C@H](CO)[C@@H](O)[C@H]2O)n1 [Example 453]
- EC90 [4]: < 0.5 µM

Compound: CCOCCNc1nc(C)c(-c2nc3c(CC)nccc3s2)c(N[C@@H]2C[C@H](CO)[C@@H](O)[C@H]2O)n1 [Example 1504]
- EC90 [3]: < 0.5 µM
